Data reported in paper PMC6225228, “Design, Synthesis and Evaluation of N-pyrazinylbenzamides as Potential Antimycobacterial Agents” (Molecules : A Journal of Synthetic Chemistry and Natural …, 2018).
Converted amounts (≈) assume the structure as drawn. Where two headings read alike, the source gives them in different places.

Legend:
[1] = system: Candida albicans ATCC 44859; assay: Antifungal microdilution broth, CA; type: cell-based; settings: Candida albicans, read-out: MIC CA
[2] = system: Mycobacterium tuberculosis H37Rv CNCTC My 331/88 (ATCC 27294); assay: Antimycobacterial microdilution MABA, M. tuberculosis; type: cell-based; settings: for Mtb H37Rv ATCC 27294 MIC: Middlebrook 7H9 with OADC growth supplement, pH = 6.6, MABA; for MIC: Mycobacterium tuberculosis, read-out: Mtb H37Rv ATCC 27294 MIC, Middlebrook 7H9 with OADC growth supplement, pH = 6.6, MABA
[3] = system: M. kansasii CNCTC My 235/80 (ATCC 12478); assay: Antimycobacterial microdilution MABA, M. kansasii; type: cell-based, Mycobacterium kansasii; settings: Mycobacterium kansasii, ATCC12478, pH 6.6, read-out: M. kans. ATCC 12478 MIC, Middlebrook 7H9 with OADC, pH 6.6, MABA
[4] = system: Staphylococcus epidermidis H 6966/08; assay: Antibacterial microdilution broth, SE; type: cell-based; settings: read-out: MIC SE
[5] = system: Trichosporon asahii 1188; assay: Antifungal microdilution broth, TA; type: cell-based; settings: read-out: MIC TA
[6] = system: Candida glabrata 20/I; assay: Antifungal microdilution broth, CG; type: cell-based; settings: Nakaseomyces glabratus, 20/I, read-out: MIC CG
[7] = system: Mycobacterium smegmatis CCM 4622 (ATCC 607); assay: Antimycobacterial microdilution, M. smegmatis; type: cell-based; settings: Mycolicibacterium smegmatis, read-out: M. smeg. ATCC 607 MIC
[8] = system: Lichtheimia corymbifera 272; assay: Antifungal microdilution broth, LC; type: cell-based; settings: read-out: MIC LC
[9] = system: Enterococcus sp. J 14365/08; assay: Antibacterial microdilution broth, EF; type: cell-based; settings: Enterococcus, read-out: MIC EF
[10] = system: Pseudomonas aeruginosa CCM 1961; assay: Antibacterial microdilution broth, PA; type: cell-based; settings: Pseudomonas aeruginosa, read-out: MIC PA
[11] = system: Trichophyton interdigitale 445; assay: Antifungal microdilution broth, TI; type: cell-based; settings: read-out: MIC TI
[12] = system: Staphylococcus aureus H 5996/08 methicillin resistant; assay: microbe, parasite or virus in culture; type: cell-based; settings: for MIC: Staphylococcus aureus, MRSA, read-out: MIC MRSA
[13] = system: Staphylococcus aureus CCM 4516/08; assay: Antibacterial microdilution broth, SA; type: cell-based
[14] = system: M. avium ssp. avium CNCTC My 80/72 (ATCC 15769); assay: Antimycobacterial microdilution MABA, M. avium; type: cell-based, Mycobacterium avium; settings: Mycobacterium avium, ATCC15769, pH 6.6, read-out: M. avium ATCC 15769 MIC
[15] = system: Candida krusei E28; assay: Antifungal microdilution broth, CK; type: cell-based; settings: Pichia kudriavzevii, read-out: MIC CK
[16] = system: Candida tropicalis 156; assay: Antifungal microdilution broth, CT; type: cell-based; settings: read-out: MIC CT
[17] = system: Aspergillus fumigatus 231; assay: Antifungal microdilution broth, AF; type: cell-based; settings: read-out: MIC AF
[18] = system: Escherichia coli CCM 4517; assay: Antibacterial microdilution broth, EC; type: cell-based; settings: Escherichia coli, read-out: MIC EC
[19] = Staphylococcus epidermidis, H6966/08, 24 h
[20] = Staphylococcus epidermidis, H6966/08, 48 h
[21] = Trichosporon asahii, 1188, 24 h
[22] = Trichosporon asahii, 1188, 48 h
[23] = Lichtheimia corymbifera, 272, 24 h
[24] = Lichtheimia corymbifera, 272, 48 h
[25] = Trichophyton interdigitale, 445, 72 h
[26] = Trichophyton interdigitale, 445, 120 h
[27] = Staphylococcus aureus, CCM4516, 24 h, read-out: MIC SA, 24 h
[28] = Staphylococcus aureus, CCM4516, 48 h, read-out: MIC SA, 48 h
[29] = Aspergillus fumigatus, 231, 24 h
[30] = Aspergillus fumigatus, 231, 48 h

## COc1cccc(C(=O)Nc2cnccn2)c1 [Compound 1f]
[1]; ATCC44859, 24 h
  MIC: > 500 µM
[1]; ATCC44859, 48 h
  MIC: > 500 µM
[2]
  Mtb H37Rv ATCC 27294 MIC: >100 µg/mL
  MIC: > 100 µg/mL
[3]
  MIC: > 100 µg/mL
[4]; [19]
  MIC: > 500 µM
[4]; [20]
  MIC: > 500 µM
[5]; [21]
  MIC: > 500 µM
[5]; [22]
  MIC: > 500 µM
[6]; 24 h
  MIC: > 500 µM
[6]; 48 h
  MIC: > 500 µM
[7]
  MIC: ≥ 500 µg/mL
[8]; [23]
  MIC: > 500 µM
[8]; [24]
  MIC: > 500 µM
[9]; SP.J14365/08, 24 h
  MIC: > 500 µM
[9]; SP.J14365/08, 48 h
  MIC: > 500 µM
[10]; CCM1961, 72 h
  MIC: > 500 µM
[10]; CCM1961, 120 h
  MIC: > 500 µM
[11]; [25]
  MIC: > 500 µM
[11]; [26]
  MIC: > 500 µM
[12]; 24 h
  MIC: > 500 µM
[12]; 48 h
  MIC: > 500 µM
[13]; [27]
  MIC: > 500 µM
[13]; [28]
  MIC: > 500 µM
[14]
  MIC: > 100 µg/mL
[15]; E28, 24 h
  MIC: > 500 µM
[15]; E28, 48 h
  MIC: > 500 µM
[16]; Candida tropicalis, 156, 24 h
  MIC: > 500 µM
[16]; Candida tropicalis, 156, 48 h
  MIC: > 500 µM
[17]; [29]
  MIC: > 500 µM
[17]; [30]
  MIC: > 500 µM
[18]; CCM4517, 24 h
  MIC: > 500 µM
[18]; CCM4517, 48 h
  MIC: > 500 µM

## CCc1ccc(C(=O)Nc2cnccn2)cc1 [Compound 1i]
[1]; ATCC44859, 24 h
  MIC: > 500 µM
[1]; ATCC44859, 48 h
  MIC: > 500 µM
[2]
  MIC: > 100 µg/mL
[3]
  MIC: > 100 µg/mL
[4]; [19]
  MIC: 500 µM (≈ 114 µg/mL)
[4]; [20]
  MIC: 500 µM (≈ 114 µg/mL)
[5]; [21]
  MIC: > 500 µM
[5]; [22]
  MIC: > 500 µM
[6]; 24 h
  MIC: > 500 µM
[6]; 48 h
  MIC: > 500 µM
[7]
  MIC: ≥ 500 µg/mL
[8]; [23]
  MIC: > 500 µM
[8]; [24]
  MIC: > 500 µM
[9]; SP.J14365/08, 24 h
  MIC: 500 µM (≈ 114 µg/mL)
[9]; SP.J14365/08, 48 h
  MIC: 500 µM (≈ 114 µg/mL)
[10]; CCM1961, 72 h
  MIC: > 500 µM
[10]; CCM1961, 120 h
  MIC: > 500 µM
[11]; [25]
  MIC: > 500 µM
[11]; [26]
  MIC: > 500 µM
[12]; 24 h
  MIC: > 500 µM
[12]; 48 h
  MIC: > 500 µM
[13]; [27]
  MIC: > 500 µM
[13]; [28]
  MIC: > 500 µM
[14]
  MIC: > 100 µg/mL
[15]; E28, 24 h
  MIC: > 500 µM
[15]; E28, 48 h
  MIC: > 500 µM
[16]; Candida tropicalis, 156, 24 h
  MIC: > 500 µM
[16]; Candida tropicalis, 156, 48 h
  MIC: > 500 µM
[17]; [29]
  MIC: > 500 µM
[17]; [30]
  MIC: > 500 µM
[18]; CCM4517, 24 h
  MIC: > 500 µM
[18]; CCM4517, 48 h
  MIC: > 500 µM

## O=C(Nc1cnccn1)c1cccc(C(F)(F)F)c1 [Compound 1n]
[1]; ATCC44859, 24 h
  MIC: > 125 µM
[1]; ATCC44859, 48 h
  MIC: > 125 µM
[2]
  Mtb H37Rv ATCC 27294 MIC: >100 µg/mL
  MIC: > 100 µg/mL
[3]
  MIC: > 100 µg/mL
[4]; 24 h
  MIC: 62.50 µM (≈ 16.7 µg/mL)
[4]; 48 h
  MIC: 62.50 µM (≈ 16.7 µg/mL)
[4]; [19]
  MIC: 62.5 µM (≈ 16.7 µg/mL)
[4]; [20]
  MIC: 62.5 µM (≈ 16.7 µg/mL)
[5]; [21]
  MIC: > 125 µM
[5]; [22]
  MIC: > 125 µM
[6]; 24 h
  MIC: > 125 µM
[6]; 48 h
  MIC: > 125 µM
[7]
  MIC: ≥ 500 µg/mL
[8]; [23]
  MIC: > 125 µM
[8]; [24]
  MIC: > 125 µM
[9]; SP.J14365/08, 24 h
  MIC: > 125 µM
[9]; SP.J14365/08, 48 h
  MIC: > 125 µM
[10]; CCM1961, 72 h
  MIC: > 125 µM
[10]; CCM1961, 120 h
  MIC: > 125 µM
[11]; [25]
  MIC: > 125 µM
[11]; [26]
  MIC: > 125 µM
[12]; 24 h
  MIC MRSA: >125 µM
  MIC: > 125 µM
[12]; 48 h
  MIC MRSA: >125 µM
  MIC: > 125 µM
[13]; 24 h, read-out: MIC SA
  MIC: >125 µM
[13]; 48 h, read-out: MIC SA
  MIC: >125 µM
[13]; [27]
  MIC: > 125 µM
[13]; [28]
  MIC: > 125 µM
[14]
  MIC: > 100 µg/mL
[15]; E28, 24 h
  MIC: > 125 µM
[15]; E28, 48 h
  MIC: > 125 µM
[16]; Candida tropicalis, 156, 24 h
  MIC: > 125 µM
[16]; Candida tropicalis, 156, 48 h
  MIC: > 125 µM
[17]; [29]
  MIC: > 125 µM
[17]; [30]
  MIC: > 125 µM
[18]; CCM4517, 24 h
  MIC: > 125 µM
[18]; CCM4517, 48 h
  MIC: > 125 µM

## COc1cccc(C(=O)Nc2cnc(Cl)cn2)c1 [Compound 2f]
[1]; ATCC44859, 24 h
  MIC: 125 µM (≈ 33 µg/mL)
[1]; ATCC44859, 48 h
  MIC: 500 µM (≈ 132 µg/mL)
[2]
  MIC: > 100 µg/mL
[3]
  MIC: > 100 µg/mL
[4]; 24 h
  MIC: >500 µM
[4]; 48 h
  MIC: >500 µM
[4]; [19]
  MIC: > 500 µM
[4]; [20]
  MIC: > 500 µM
[5]; [21]
  MIC: > 500 µM
[5]; [22]
  MIC: > 500 µM
[6]; 24 h
  MIC: > 500 µM
[6]; 48 h
  MIC: > 500 µM
[7]
  MIC: ≥ 500 µg/mL
[8]; [23]
  MIC: > 500 µM
[8]; [24]
  MIC: > 500 µM
[9]; SP.J14365/08, 24 h
  MIC: > 500 µM
[9]; SP.J14365/08, 48 h
  MIC: > 500 µM
[10]; CCM1961, 72 h
  MIC: > 500 µM
[10]; CCM1961, 120 h
  MIC: > 500 µM
[11]; [25]
  MIC: > 500 µM
[11]; [26]
  MIC: > 500 µM
[12]; 24 h
  MIC MRSA: >500 µM
  MIC: > 500 µM
[12]; 48 h
  MIC MRSA: >500 µM
  MIC: > 500 µM
[13]; [27]
  MIC: 31.2 µM (≈ 8.24 µg/mL)
[13]; [28]
  MIC: 31.2 µM (≈ 8.24 µg/mL)
[14]
  MIC: > 100 µg/mL
[15]; E28, 24 h
  MIC: > 500 µM
[15]; E28, 48 h
  MIC: > 500 µM
[16]; Candida tropicalis, 156, 24 h
  MIC: > 500 µM
[16]; Candida tropicalis, 156, 48 h
  MIC: > 500 µM
[17]; [29]
  MIC: > 500 µM
[17]; [30]
  MIC: > 500 µM
[18]; CCM4517, 24 h
  MIC: > 500 µM
[18]; CCM4517, 48 h
  MIC: > 500 µM
